Laboratory results reported in PMC4167698, “Fatty Acid Esters of Phloridzin Induce Apoptosis of Human Liver Cancer Cells through Altered Gene Expression” (PLoS ONE, 2014).

Assays:
DNA topo IIα = tested on: DNA topo IIα; design: method as in PMID 7769390; conditions: cited from earlier work
THP-1 cells = assay: MTS cell proliferation assay, THP-1; assay type: cell-based, human; conditions: Homo sapiens, MTS
Description: (§1) Cell viability was determined by using the MTS assay. In brief, HepG2 cells (5×10^3 cells/100 µL/well), MDA-MB-231 (5×10^3 cells/100 µL/well), THP-1 (25×10^3/100 µL/well), normal human and rat hepatocytes (1×10^4 cells/100 µL/well) were plated in triplicate, in a 96 well sterile flat bottom tissue culture plates. […] Thereby, cells were exposed to various concentrations (0.1, 1, 10, 25, 50, 75, 100 µM) of each treatment. Controls consist of cells with media containing DMSO (<0.5%), test blank wells contained the test compound in media with no cells and blank wells contained media with no cells. After additional 3, 6, 12, 18 or 24 h, 20 µL of the MTS reagent in combination with the electron coupling agent, phenazine methosulfate were added to the wells and cells were incubated in a humidified incubator for 3 h. Absorbance at 490 nm (OD490) was measured by using a Flurostar Optima microplate reader (BMG Labtech, Cary, NC, USA) to obtain the number of viable cells relative to the control population. Percentage of viability of the test compound treated cells are expressed as percentage compared to control (<0.5% DMSO). […] The selective index (SI) of the fatty acid esters of phloridzin is defined as the ratio of cytotoxicity (EC50 values) on normal HP-F cells to solid cancer HepG2, MDA-MB-231 cells (SI = EC50 on HP-F cells/EC50 on solid cancer cells). Samples with SI values greater than three were considered to have high selectivity towards cancer cells.

[1] = tested on: LNCaP prostate cancer cells; design: method as in PMID 20714300; conditions: 100 µM; cited from earlier work
HepG2 cells [2] = assay: LDH release cytotoxicity assay; assay type: cell-based, human; conditions: HepG2, 100 µM, 6 h, relative to maximum release by 1% Triton X-100
Description: Lactate dehydrogenase (LDH) is a stable cytosolic enzyme that is released upon membrane damage in apoptotic/necrotic cells. LDH activity was measured using CytoTox 96 Non-Radioactive Cytotoxicity Assay (Promega, Madison, WI, USA), in which LDH released in culture supernatants is measured with a coupled enzymatic assay, resulting in conversion of a tetrazolium salt into a red formazan product. […] After centrifugation, the supernatant was removed to an assay plate, and the LDH released from the cells into culture medium was measured. The maximal release was obtained after treating control cells with 1% Triton X-100 for 30 min at room temperature. The apoptotic/necrotic percentage was expressed using the formula: (sample value/maximal release)×100%.

HepG2 cells [3] = assay: Mitochondrial membrane potential (JC-1); assay type: cell-based, human; conditions: HepG2, 100 µM, 24 h
Description: HepG2 cells were seeded in a black walled clear bottom 96-well sterile flat bottom tissue culture plates (BD Biosciences, USA) at a density of 5×10^4 cells/well (100 µL) and incubated in a CO2 incubator for 24 h at 37°C. […] The staining solution JC-1 was prepared with PBS and 5 µM was added to each well. The cells were further incubated in a CO2 incubator at 37°C for 1 h. After washing the plate with PBS twice, the fluorescence was measured using a Fluostar Optima microplate reader (BMG Labtech) at 535 nm for JC-1 monomers and at 590 nm for JC-1 aggregates.

[4] = tested on: BALB-MC.E12 mouse mammary tumor cells; design: method as in PMID 17827407; conditions: antitumor activity study of apple polyphenols; cited from earlier work
B16 mouse melanoma cells = tested on: B16 mouse melanoma cells; design: method as in PMID 17827407; conditions: antitumor activity study of apple polyphenols; cited from earlier work
HepG2 cells [5] = assay: Morphologic observation under inverted phase contrast microscope; assay type: cell-based, human; conditions: HepG2, 100 µM, 24 h
Description: After 24 h of treatment, the morphology of HepG2 cells was observed under an inverted phase contrast microscope (Nikon Eclipse E 100, Nikon, Mississauga, ON, Canada) and were captured at 400X magnification using Infinity digital microscopy camera (Lumenera corporation, Ottawa, ON, Canada).

[6] = glycosylation at 2-OH; cited from earlier work
[7] = tested on: normal human hepatocytes (HP-F); assay: MTS cell viability assay, normal human hepatocytes; assay type: cell-based; conditions: Hepatocyte, 24 h
Description: as §1

SMILES | DNA topo IIα unknotting activity (DNA topo IIα) | EC50 (THP-1 cells; THP-1, 3 h) | EC50 (THP-1 cells; THP-1, 6 h) | EC50 (THP-1 cells; THP-1, 12 h) | EC50 (THP-1 cells; THP-1, 18 h) | EC50 (THP-1 cells; THP-1, 24 h) | TRAIL-induced apoptosis and cytotoxicity [1] | LDH release (HepG2 cells [2]) | mitochondrial membrane potential (HepG2 cells [3]) | proliferation of BALB-MC.E12 mouse mammary tumor cells [4] | proliferation of transplanted B16 mouse melanoma cells (B16 mouse melanoma cells) | apoptotic morphological changes (HepG2 cells [5]) | decrease of antioxidant activities in comparison to phloretin [6] | EC50 [7]
O=C(CCc1ccc(O)cc1)c1c(O)cc(O)cc1O [Phloretin] | inhibit DNA topo IIα unknotting activity | 73.5 ± 5.2 µM | 64.1 ± 5.4 µM | 60.1 ± 4.2 µM | 56.9 ± 3 µM | 39.6 ± 1.7 µM | augmented | 7.9±0.5% | significant (P<0.05) reduction |  |  |  |  | 
O=C(CCc1ccc(O)cc1)c1c(O)cc(O)cc1O[C@@H]1O[C@H](CO)[C@@H](O)[C@H](O)[C@H]1O [Phloridzin, phloretin 2′-O-glucoside] |  | > 100 µM | > 100 µM | > 100 µM | > 100 µM | > 100 µM |  |  |  | did not affect the proliferation | did not affect the proliferation | no effect | 18 times | > 100 µM
